Measured values taken from paper PMC11547513, “Design, Synthesis and Biological Activity Evaluation of β-Carboline Derivatives Containing Nitrogen Heterocycles” (Molecules, 2024).
Several values for one entry are separate records, joined by “and”; a condition that tells them apart may be missing. Equal values may be shown once. Read-outs that look alike come from different tables or passages of the source.

Key:
PC-3 cells [1] = assay: Colony formation assay; assay type: cell-based, human; details: Figure 3A
PC-3 cells [2] = assay: Intracellular ROS assay (DCFH-DA, flow cytometry); assay type: cell-based, human; details: 10 μM, 24 h; negative control MFI 19.8
Procedure: Apoptosis is an important target for antitumor therapy. To explore the antitumor mechanism of compound 8q, cell apoptosis was detected using flow cytometry. […] Moreover, reactive oxygen species (ROS) play a significant role in cell growth, differentiation and apoptosis. Excessive ROS can cause oxidative damage and lead to cell apoptosis. […]
(§1) a wound healing assay was performed using the method we previously reported1. In short, PC-3 cells were seeded in a six-well plate at a density of 10 × 105 and incubated at a constant temperature of 37 ℃ and 5% CO2 for 24 h. Then the pipette tip was used to create a uniform wound on the surface of cells. Subsequently, after cleaning twice with PBS, the scratch healing of the 8q treatment group and the positive drug treatment […]
(§2) was used to measure and quantify cell migration. […]
PC-3 cells were seeded in a six-well plate at a density of 3 × 105, and cultured at 37 ℃ and 5% CO2 for 24 h before adding 10 μM. […] After completion, the cells were immediately detected on the Flow Cytometry (Solarbio, Beijing, China). […]
at 37 ° C for 20 min. Subsequently, the staining solution was wash off with basic culture medium and detected the fluorescence intensity using the flow cytometer. The data was analyzed and obtained through Flow Jo and Prism 7.04 software. […]
(§3) The distribution of cycles was analyzed by Flow Jo and Prism 7.04 software. […]

[3] = test system: K562 (human chronic myeloid leukemia cell); assay: MTT assay, in vitro cytotoxicity on K562
Source text: (§4) Cells were purchased from the Cell Bank of the Chinese Academy of Sciences (Kunming, China).

[4] = test system: T47D (human breast cancer cell); assay: MTT assay, in vitro cytotoxicity on T47D
Source text: as §4

[5] = test system: PC-3 (human prostate cancer cell); assay: MTT assay, in vitro cytotoxicity on PC-3
Source text: as §4

PC-3 cells [6] = assay: Cell cycle assay (PI, flow cytometry); assay type: cell-based, human; details: 24 h; for Cell cycle distribution, S phase: negative control 20.8%; for Cell cycle distribution, G2/M phase: negative control 23.6%; for Cell cycle distribution, G0/G1 phase: negative control 50.6%
Procedure: To analyze the effect of compound 8q on cell cycle, the cycle of PC-3 cells was detected after being treated with compound 8q for 24 h (Figure 5). […] In addition, Cyclin D1, a cell cycle-related protein, is a key regulator of cycle progression, mainly regulating G1/S phase transition. […] In summary, compound 8q can arrest cells in the G0/G1 phase. […]
2.5. Cell cycle arrest of compound 8q on PC-3
To determine the effect of compound 8q on the cell cycle distribution of PC-3 cell, we used our previous method with slight modifications2. Briefly, cells were incubated in a six-well plate with a density of 3 × 105 at 37 ℃ and 5% CO2 for 24 h, followed by the addition of different concentrations of compound 8q for further incubation for 24 h.
Next, the cells were collected and washed twice with PBS. 75% anhydrous ethanol was used to immobilize the cells under overnight conditions at 4 ℃. Subsequently, PBS washed cells, and RNase from the cell cycle assay kit (Solarbio, Beijing, China) was added and incubated in a constant temperature (37 ℃) water bath for 30 min. Then PI was added under dark conditions and incubated at 4 ℃ for another half hour to detect.
as §3

PC-3 cells [7] = assay: Wound healing assay; assay type: cell-based, human; details: 24 h, control group 46.41%
Procedure: Given that cell migration plays a pivotal role in tumor cell invasion, to further validate the impact of compound 8q on PC-3 cell motility, a wound healing assay was conducted. […] These findings underscore the potent inhibitory effect of compound 8q on the motility of PC-3 cells. […]
as §1, §2

[8] = test system: A549 (human lung cancer cell); assay: MTT assay, in vitro cytotoxicity on A549
Source text: as §4

melting point: 181.8 to 182.7 °C
SMILES: COc1cc(-c2nc(-c3nnc(SCC(=O)Nc4ccc(CN5CCOCC5)cc4)o3)cc3c2[nH]c2ccccc23)cc(OC)c1OC [Compound 8q, N-(4-(morpholinomethyl)phenyl)-2-((5-(1-(3,4,5-trimethoxyphenyl)-9H-pyrido[3,4-b]indol-3-yl)-1,3,4-oxadiazol-2-yl)thio)acetamide]
Inhibition of colony formation (proliferation) of PC-3 cells (PC-3 cells [1]): concentration-dependent manner
ROS mean fluorescence intensity (MFI) value (PC-3 cells [2]): 138
IC50 ([3]; Homo sapiens, K562, read-out: IC50 (Mean ± S.D.), K562, average of three replicates): 11.2 µM
inhibition at 10 µM ([3]; Homo sapiens, K562, read-out: Inhibitory Activity/% at 10 μM, K562): 25.6 ± 14.9%
IC50 ([3]; read-out: IC50 (Mean ± S.D.), K562, average of three replicates): 11.7 ± 0.21 µM
IC50 ([4]; read-out: IC50 (Mean ± S.D.), T47D): 9.96 ± 0.63 µM
inhibition at 10 µM ([4]; read-out: Inhibitory Activity/% at 10 μM, T47D): 14.5 ± 7.43%
IC50 ([5]; Homo sapiens, read-out: IC50 (Mean ± S.D.), PC-3, average of three replicates): < 10 µM
inhibition at 10 µM ([5]; Homo sapiens, read-out: Inhibitory Activity/% at 10 μM, PC-3, Table 2 (8 series), 10 μM, average of three replicates, "/" means no anticancer activity): 46.1 ± 0.74%
IC50 ([5]; read-out: IC50 (Mean ± S.D.), PC-3, average of three replicates): 9.86 ± 1.03 µM
Cell cycle distribution, S phase (PC-3 cells [6]; 10 μM): 14.2%
Cell cycle distribution, G2/M phase (PC-3 cells [6]; 10 μM): 20.8%
Cell cycle distribution, G0/G1 phase (PC-3 cells [6]; 10 μM): 55.66% and 58.5%
Cell cycle distribution, S phase (PC-3 cells [6]; 20 μM): 13.0%
Cell cycle distribution, G2/M phase (PC-3 cells [6]; 20 μM): 18.4%
Cell cycle distribution, G0/G1 phase (PC-3 cells [6]; 20 μM): 60.83% and 63.0%
Cell cycle distribution, S phase (PC-3 cells [6]; 30 μM): 9.01%
Cell cycle distribution, G2/M phase (PC-3 cells [6]; 30 μM): 20.5%
Cell cycle distribution, G0/G1 phase (PC-3 cells [6]; 30 μM): 62.03% and 64.9%
Migration rate of PC-3 cells (PC-3 cells [7]; 10 μM): 29.56%
Migration rate of PC-3 cells (PC-3 cells [7]; 20 μM): 26.32%
Migration rate of PC-3 cells (PC-3 cells [7]; 30 μM): 19.99%
IC50 ([8]; A549, read-out: IC50 (Mean ± S.D.), A549): 26.2 ± 1.51 µM
inhibition at 10 µM ([8]; A549, read-out: Inhibitory Activity/% at 10 μM, A549): 32.9 ± 4.3%
